{"source": "patent US9051568B2", "about": "“Anti-sense microrna expression vectors” (Rutgers, The State University of New Jersey, priority 2008, dated 2015)", "key": {"[1]": {"test_system": "miR-21", "assay": "Northern blotting of miR-21 in cardiocytes", "type": "cell-based", "conditions": "isolated rat cardiocytes", "text": "(§1) Northern blotting—As previously described.\nIn order to address the role of miR-21 in cardiocytes a 320 nt sequence that encompasses the miR-21 stem-loop was cloned into a recombinant adenovirus (FIG. 8a). A tandem repeat of the anti-sense sequence of mature miR-21 was also cloned under the control of the U6 promoter (FIG. 8a). […] For that reason this construct was dubbed ‘miR-21 eraser’."}, "[2]": {"test_system": "cardiocytes", "assay": "Cellular outgrowths/branches of cultured cardiocytes", "type": "cell-based, rat", "conditions": "cardiocytes treated with isoproterenol, titin staining", "protocol": "Cell cultures and adenovirus Infection—Neonatal cardiac myocytes were prepared from Sprague Dawley rat hearts as previously described, using both pre-plating and percoll gradients for enriching of myocytes. Adult cardiac myocytes were prepared as previously described.\nBut after 48-72 h in culture extensive cellular outgrowths (4±3 branches/cell) were noticed that varied in length (44±28 μm) depending on the distance between neighboring cells (FIG. 8c). Sprouty, a known inhibitor of branching morphogenesis and neurite outgrowth, is predicted to be a miR-21 target by TargetScanS and PicTar miRNA target prediction software, each using a unique set of algorithms. To confirm its potential in mediating miR-21's branching effects, it was independently knocked down using adenoviral delivered short-hairpin RNA (see FIG. 8e).\nThe physiological relevance of these miR-21-induced outgrowths were assessed. After treatment of the cells with isoproterenol and staining them with an antibody against the sarcomeric protein titin, cellular outgrowth that were connecting or reaching out to adjacent cells was observed (FIG. 9a). The striated pattern of titin staining reflects the presence of sarcomeres even within these branches. This effect was wide spread in all observed fields (4±3 branches/cell). Impressively, these outgrowths were abrogated by the miR-21 eraser or over-expression of SPRY2 (FIG. 9a). […]"}, "[3]": {"test_system": "SPRY2", "assay": "SPRY2 protein in cardiocytes (Western blot, immunostaining)", "type": "cell-based, rat", "conditions": "isoproterenol and β2AR", "text": "Using Western blot analysis down-regulation of endogenous SPRY2 (52±4%) was confirmed upon over-expression of miR-21 for 48 hr (FIG. 8d). Since sprouty negatively regulates erk1/2, phospho-erk1/2 was used as a marker for monitoring changes in Spry2 function that would be regulated by changes in its levels. […] Thus, SPRY2 is a downstream target of miR-21 (could be a direct or indirect target at this juncture) and has limiting cellular concentrations.\nThe physiological relevance of these miR-21-induced outgrowths were assessed. After treatment of the cells with isoproterenol and staining them with an antibody against the sarcomeric protein titin, cellular outgrowth that were connecting or reaching out to adjacent cells was observed (FIG. 9a). The striated pattern of titin staining reflects the presence of sarcomeres even within these branches. This effect was wide spread in all observed fields (4±3 branches/cell). Impressively, these outgrowths were abrogated by the miR-21 eraser or over-expression of SPRY2 (FIG. 9a). […] Similar results were obtained when cells were treated the a virus over-expressing β2AR (supplementary FIG. 9s). While FIG. 7 confirms that isoproterenol and β2AR induce upregulation of miR-21, FIG. 9b confirms that they also induce 70±22% downregulation of SPRY2 protein (FIG. 9b). […]"}, "[4]": {"test_system": "miR-199a", "assay": "Northern blotting of miR-199a in myocytes", "type": "cell-based, rat", "conditions": "100 μM, 16 h", "text": "g. […] Total RNA was then extracted and analyzed by Northern blotting for the miRNA indicated on the left (n=2).\nas §1"}, "[5]": {"test_system": "prolyl hydroxylase 2 (PHD2)", "assay": "PHD2 protein in myocytes by Western blotting", "type": "cell-based, rat", "conditions": "myocytes overexpressing Sirt1, 20 mM", "protocol": "b. Myocytes were treated as described in (a.) and as indicated in the grid by + signs. Protein was extracted and analyzed by Western blotting (n=3).\nd. Myocytes were subjected to 24 h anoxia or HPC, before or after treatment with a control or miR-199a-expressing virus for 24 h where indicated by + signs. Protein was extracted and analyzed by Western blotting for the molecules indicated on the left.\ne. Myocytes were treated with a control or Sirt1-overexpressing virus in the absence or presence or 20 mM nicotinamide (NAM). Protein was extracted and analyzed by Western blotting (n=3).\n(§2) Cellular fractionation and Western blotting—Mitochondria was isolated using ProteoExtract Cytosol/Mitochondria Fractionation Kit (Calbiochem, NJ), according to the manufacturer's protocol. Fifteen μg of protein was separated on a 4% to 20% gradient SDS-PAGE (Criterion gels, Bio-Rad, CA) and transferred onto TransBlot Transfer membrane (Bio-Rad, CA)."}, "[6]": {"test_system": "Sirt1", "assay": "Sirt1 protein in myocytes by Western blotting", "type": "cell-based, rat", "conditions": "40 μM, 24 h", "protocol": "c. […] Protein was then extracted and analyzed by Western blotting.\nb. Cultured adult rat cardiac myocytes were treated with miR-199a eraser for 24 h or HPC. Protein was extracted and analyzed by Western blotting for the molecules indicated on the left of each panel (n=3).\nas §2"}}}
{"smiles": "CC(C)NCC(O)c1ccc(O)c(O)c1", "note": "(stereo not drawn) [isoproterenol]", "values": [{"measurement": "miR-21 level", "setting": "[1]", "value": "upregulation"}, {"measurement": "cellular outgrowths", "setting": "[2]", "value": "4±3", "unit": "branches/cell"}, {"measurement": "downregulation of SPRY2 protein", "setting": "[3]", "value": "70±22", "unit": "%"}]}
{"smiles": "Nc1ncnc2c1ncn2[C@@H]1O[C@H](CO)[C@@H](O)[C@H]1O", "note": "[adenosine]", "values": [{"measurement": "miR-199a level", "setting": "[4]", "value": "downregulation"}]}
{"smiles": "NC(=O)c1cccnc1", "note": "[nicotinamide]", "values": [{"measurement": "Sirt1-induced knockdown of PHD2", "setting": "[5]", "value": "reversed"}]}
{"smiles": "Oc1ccc(C=Cc2cc(O)cc(O)c2)cc1", "note": "[resveratrol]", "values": [{"measurement": "Sirt1 expression", "setting": "[6]", "value": "increase"}]}
